Results from US6090945A, “Tetrahydro-beta-carbolines” (Eli Lilly and Company, priority 1998, dated 2000).
Counter-ions that a name gives are not always drawn. Like-named read-outs stand apart in the source and are kept apart here.

How the values were obtained:
5-HT1c receptor [1] = molecular target: T1, 5-HT1c receptor (Bos taurus, UniProt A0AAA9SBU1); experiment: 5-HT1c radioligand binding assay ([3H]mesulergine displacement); settings: read-out: 5HT1C IC50 (binding displacement); choroid plexus; tritiated mesulergine 2.0 nM; 37° C., 15 minutes
T1 sequence (A0AAA9SBU1 33-457): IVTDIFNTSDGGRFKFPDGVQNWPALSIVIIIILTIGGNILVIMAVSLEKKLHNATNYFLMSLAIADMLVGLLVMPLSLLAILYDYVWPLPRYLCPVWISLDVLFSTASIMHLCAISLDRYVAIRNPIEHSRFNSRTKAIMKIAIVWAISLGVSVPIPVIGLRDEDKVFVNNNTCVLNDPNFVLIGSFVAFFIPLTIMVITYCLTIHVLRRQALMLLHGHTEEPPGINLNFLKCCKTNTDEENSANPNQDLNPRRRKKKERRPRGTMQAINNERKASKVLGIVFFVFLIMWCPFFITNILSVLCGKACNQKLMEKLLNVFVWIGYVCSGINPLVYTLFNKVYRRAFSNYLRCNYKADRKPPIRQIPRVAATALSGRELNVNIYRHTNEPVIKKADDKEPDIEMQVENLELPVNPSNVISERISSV
Method: I. Assay for 5-HT1c Affinity
(§1) Beef brain was removed immediately after slaughter, and choroid plexus were dissected over ice. […] Tissues were homogenized in 9 volumes of 0.32 mol/L sucrose and centrifuged at 1,000×g for 10 minutes. The supernatant was centrifuged at 17,000×g for 20 minutes. The pellet was suspended in 100 volumes of 50 mM Tris-HCl (pH7.4), incubated at 37° C. for 10 minutes and centrifuged at 50,000×g for 10 minutes, and the process was repeated three times. The final pellets were frozen at -70° C. and used within 2 weeks. Pellets were rehydrated with physiological buffer prior to use.
(§2) The reactions were terminated by rapid filtration, (Brandel Cell Harvestor), through Whatman GF/B glass filters that had been presoaked in Tris buffer pH 7.4. The filters were then washed 2 times with 5 ml of ice cold Tris buffer pH 7.4. Washed filters were placed in scintillation vials and 10 ml RedySolv, (Brandel), was added and samples were counted in a Searle D-300 beta counter. Means and standard error statistics were calculated for triplicate experimental determinations in certain cases. Mean values were obtained from three or more separate determinations. The incubation time for the reaction mixture was 15 minutes at 37° C.

5-HT1c receptor [2] = experiment: as above; settings: versus 5-HT2, as shown by Table II
Method: I. Assay for 5-HT1c Affinity
as §1, §2

5-HT2 receptor = 5-HT2 receptor (Rattus norvegicus, UniProt P14842); experiment: 5-HT2 radioligand binding assay ([3H]ketanserin displacement); design: species or system rat (Sprague-Dawley cerebral cortex)
Human 2A = Human 2A (Homo sapiens, UniProt P28223); experiment: radioligand binding, human 2A; settings: read-out: Human 2A binding (IC50 converted to Ki)
Method: The Kd and Bmax values from the saturation assays were determined for best fit to a one-site or a two-site binding model using a partial F-test. De Lean, A., A. A. Hancock, and R. J. Lefkowitz, Mol. Pharmacol. 21: 5-16 (1981). The following equation was used for a one-site binding model, [formula] where Bound=amount of [^3 H]5-HT specifically bound, Bmax =maximum number of binding sites, Kd =equilibrium dissociation constant and [L]=free concentration of [^3 H]5-HT, or a two-site binding model, [formula] where Bound=amount of [^3 H]5-HT specifically bound, Bmax1 =maximum number of high affinity binding sites, Bmax2 =maximum number of low affinity binding sites, Kd1 =equilibrium dissociation constant for the high affinity site, Kd2 =equilibrium dissociation constant for the low affinity site and [L]=free concentration of [^3 H]5-HT. The IC50 values from the competition assays, the binding parameters for the IP3 standard curve and the EC50 and Emax values from the IP3 assays were determined by nonlinear regression analysis of four parameter logistic equations (Systat, Systat Inc, Evanston, Ill.). De Lean, A., A. A. Hancock, and R. J. Lefkowitz, Mol. Pharmacol., 21: 5-16 (1981). The IC50 values were converted to Ki values using the Cheng-Prusoff equation. Cheng, Y., and W. H. Prusoff, Biochem. Pharmacol., 22: 3099-3108 (1973).

Human 2B = Human 2B (Homo sapiens, UniProt P41595); experiment: radioligand binding, human 2B; settings: read-out: Human 2B binding (IC50 converted to Ki)
Method: (§3) RAdioligand Binding Studies for 5-HT2 B:
[^3 H]5-HT binding studies. Binding assays were automated using a Biomek 1000 (Beckman Instruments, Fullerton, Calif.) and were performed in triplicate in 0.8 ml total volume. Membrane suspension, 200 μl, (0.04-0.27 mg protein) and 200 μl of drug dilution in water were added to 400 μl of 67 mM Tris-HCl, pH 7.4, containing [^3 H]5-HT, pargyline, CaCl2, and L-ascorbic acid. Final concentrations of pargyline, CaCl2 and L-ascorbic acid were 10 μM, 3 mM and 0.1%, respectively. Tubes were incubated at 37° C. for 15 min or at 0° C. for 2 hours (binding equilibria were verified for both of these conditions), then rapidly filtered using a Brandel cell harvester (Model MB-48R; Brandel, Gaithersburg, Md.) through Whatman GF/B filters which had been presoaked in 0.5% polyethylenimine and precooled with ice-cold 50 mM Tris-HCl, pH 7.4. The filters were then washed rapidly four times with one ml ice-cold 50 mM Tris-HCl, pH 7.4. The amount of [^3 H]5-HT trapped on the filters was determined by liquid scintillation spectrometry (Ready Protein and Beckman LS 6000IC, Beckman Instruments, Fullerton, Calif.). For the saturation experiments, actual free radioligand concentrations were determined by sampling the supernatant of parallel saturation experiments in which bound radioactivity had been separated by centrifugation. […] 5-HT, 10 μM, or 1-naphthylpiperazine (1-NP), 10 μM, defined nonspecific binding. […] Protein was determined by the method of Bradford, using bovine serum albumin as the standard.
(§4) The Kd and Bmax values from the saturation assays were determined for best fit to a one-site or a two-site binding model using a partial F-test. […] The IC50 values from the competition assays, the binding parameters for the IP3 standard curve and the EC50 and Emax values from the IP3 assays were determined by nonlinear regression analysis of four parameter logistic equations (Systat, Systat Inc, Evanston, Ill.). […]

[3] = molecular target: T2, cloned rat 5-HT2B receptor (Rattus norvegicus, UniProt P30994); experiment: 5-HT2B radioligand binding ([3H]5-HT), cloned rat receptor; settings: [3H]5-HT 2 nM, read-out: Rat 2B binding (IC50 converted to Ki)
T2 construct: expressed in transfected cells
Method: as §3
Membrane preparation from transformed cells. Suspension cells expressing the cloned rat 5-HT2B receptor were harvested by centrifugation at 200×g for 15 min at 4° C. […] Membranes for the binding assays were prepared by vortexing the pellet in 50 mM Tris-HCl, pH 7.4 (0.5×10^9 cells/30 ml). The tissue suspension was then centrifuged at 39,800×g for 10 min at 4° C. This procedure was repeated for a total of three washes, with a 10 minute incubation at 37° C. between the first and second wash.
[^3 H]5-HT binding studies. Binding assays were automated using a Biomek 1000 (Beckman Instruments, Fullerton, Calif.) and were performed in triplicate in 0.8 ml total volume. Membrane suspension, 200 μl, (0.04-0.27 mg protein) and 200 μl of drug dilution in water were added to 400 μl of 67 mM Tris-HCl, pH 7.4, containing [^3 H]5-HT, pargyline, CaCl2, and L-ascorbic acid. Final concentrations of pargyline, CaCl2 and L-ascorbic acid were 10 μM, 3 mM and 0.1%, respectively. […] The amount of [^3 H]5-HT trapped on the filters was determined by liquid scintillation spectrometry (Ready Protein and Beckman LS 6000IC, Beckman Instruments, Fullerton, Calif.). For the saturation experiments, actual free radioligand concentrations were determined by sampling the supernatant of parallel saturation experiments in which bound radioactivity had been separated by centrifugation. […] Protein was determined by the method of Bradford, using bovine serum albumin as the standard.
as §4

[4] = rat cerebral cortex, tritiated ketanserin 1 nM, 37° C., read-out: 5HT2 IC50 (binding displacement)

Sequence of Human 2B (P41595 whole entry): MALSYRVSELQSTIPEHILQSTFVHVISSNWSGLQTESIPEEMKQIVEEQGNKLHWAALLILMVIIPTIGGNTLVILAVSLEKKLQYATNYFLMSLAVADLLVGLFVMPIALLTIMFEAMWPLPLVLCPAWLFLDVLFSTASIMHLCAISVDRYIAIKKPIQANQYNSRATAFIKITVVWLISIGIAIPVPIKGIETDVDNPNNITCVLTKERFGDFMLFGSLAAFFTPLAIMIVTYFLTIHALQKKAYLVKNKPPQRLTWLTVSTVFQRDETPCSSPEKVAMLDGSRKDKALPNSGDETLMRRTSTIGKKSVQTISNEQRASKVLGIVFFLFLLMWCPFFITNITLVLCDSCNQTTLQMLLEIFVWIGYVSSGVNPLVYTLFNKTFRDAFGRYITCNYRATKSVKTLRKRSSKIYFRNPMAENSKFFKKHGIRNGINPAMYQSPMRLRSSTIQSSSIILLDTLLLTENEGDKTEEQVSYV
Sequence of Human 2A (P28223 whole entry): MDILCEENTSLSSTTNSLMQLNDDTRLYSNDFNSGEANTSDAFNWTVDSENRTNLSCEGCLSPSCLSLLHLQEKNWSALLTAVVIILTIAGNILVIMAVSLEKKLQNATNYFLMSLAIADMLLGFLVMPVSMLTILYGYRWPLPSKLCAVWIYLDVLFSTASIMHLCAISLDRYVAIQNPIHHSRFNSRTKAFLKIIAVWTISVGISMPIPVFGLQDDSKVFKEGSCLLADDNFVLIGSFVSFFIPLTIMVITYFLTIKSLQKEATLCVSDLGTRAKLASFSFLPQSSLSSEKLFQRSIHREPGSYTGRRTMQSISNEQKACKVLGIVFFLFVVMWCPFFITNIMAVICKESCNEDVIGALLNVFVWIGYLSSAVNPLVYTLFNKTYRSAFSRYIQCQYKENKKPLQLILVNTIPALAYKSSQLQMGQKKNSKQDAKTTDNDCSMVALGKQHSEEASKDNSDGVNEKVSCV
T2 sequence (P30994 whole entry): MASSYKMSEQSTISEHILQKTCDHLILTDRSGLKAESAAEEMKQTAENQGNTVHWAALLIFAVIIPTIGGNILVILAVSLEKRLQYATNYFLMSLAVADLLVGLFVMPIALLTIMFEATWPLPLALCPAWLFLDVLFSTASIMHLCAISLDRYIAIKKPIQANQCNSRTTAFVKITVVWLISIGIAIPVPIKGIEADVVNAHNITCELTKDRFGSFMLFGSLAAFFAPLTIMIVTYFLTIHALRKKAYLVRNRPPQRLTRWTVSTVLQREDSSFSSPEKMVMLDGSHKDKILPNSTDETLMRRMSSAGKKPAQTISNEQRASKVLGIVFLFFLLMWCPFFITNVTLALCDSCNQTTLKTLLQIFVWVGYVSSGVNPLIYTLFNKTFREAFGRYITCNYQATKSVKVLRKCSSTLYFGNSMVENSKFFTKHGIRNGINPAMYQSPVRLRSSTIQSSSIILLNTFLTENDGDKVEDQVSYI
Sequence of 5-HT2 receptor (P14842 whole entry): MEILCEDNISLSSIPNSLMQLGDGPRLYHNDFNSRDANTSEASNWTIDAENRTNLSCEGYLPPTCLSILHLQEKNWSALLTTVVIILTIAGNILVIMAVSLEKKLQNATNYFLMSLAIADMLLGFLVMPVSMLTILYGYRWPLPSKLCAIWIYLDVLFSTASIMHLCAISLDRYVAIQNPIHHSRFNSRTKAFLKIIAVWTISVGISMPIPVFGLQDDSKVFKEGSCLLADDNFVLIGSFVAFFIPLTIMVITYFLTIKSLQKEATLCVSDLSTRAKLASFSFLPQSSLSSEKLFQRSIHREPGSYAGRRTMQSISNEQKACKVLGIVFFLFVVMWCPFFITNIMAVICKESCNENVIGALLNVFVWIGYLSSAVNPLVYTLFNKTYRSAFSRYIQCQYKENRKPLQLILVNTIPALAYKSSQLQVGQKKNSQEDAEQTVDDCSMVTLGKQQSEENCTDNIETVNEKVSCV

Compound: COc1ccc(CC2NCCc3c2[nH]c2ccc(C(C)C)cc32)cc1OC (centres unmarked) [Example 13, 6-(1-methylethyl)-1,2,3,4-tetrahydro-1-[(3,4-dimethoxyphenyl)methyl]-9H-pyrido[3,4b]indole]
- IC50 (5-HT1c receptor [1]): 48 nM
- 5-HT1c selectivity (low IC50 in 5-HT1c assay, higher IC50 in 5-HT2 assay) (5-HT1c receptor [2]): particularly 5-HT1c selective
- IC50 (5-HT2 receptor; [4]): 433 nM

Compound: COc1ccc(CC2NCCc3c2[nH]c2c(Br)cc(Br)cc32)cc1OC (centres unmarked) [Example 3, 6,8-dibromo-1-[(3,4-dimethoxyphenyl)methyl]-1,2,3,4-tetrahydro-9H-pyrido[3,4-b]indole]
- IC50 (5-HT1c receptor [1]): 29 nM
- 5-HT1c selectivity (low IC50 in 5-HT1c assay, higher IC50 in 5-HT2 assay) (5-HT1c receptor [2]): particularly 5-HT1c selective
- IC50 (5-HT2 receptor; [4]): 900 nM

Compound: COc1ccc([C@@H](C)[C@@H]2NCCc3c2[nH]c2cc(C)c(C)cc32)cc1OC (relative stereo) [Example 41, (±) 6,7-dimethyl-1-[(3,4-dimethoxyphenyl)-1-ethyl]-1,2,3,4-tetrahydro-9H-pyrido[3,4-b]indole (Z)-2-butenedioate]
- IC50 (5-HT1c receptor [1]): 127 nM
- Ki (Human 2A): 23.1 nM
- Ki (Human 2B): 2.01 nM
- Ki [3]: 6.42 nM
- IC50 (5-HT2 receptor; [4]): 173 nM

Compound: COc1ccc(CC2NCCc3c2[nH]c2c3ccc3ccccc32)cc1OC (centres unmarked) [Example 10, 7,8,9,10-tetrahydro-10-[(3,4-dimethoxyphenyl)methyl]-11H-benzo [g]pyrido[3,4-b]indole]
- IC50 (5-HT1c receptor [1]): 43 nM
- 5-HT1c selectivity (low IC50 in 5-HT1c assay, higher IC50 in 5-HT2 assay) (5-HT1c receptor [2]): particularly 5-HT1c selective
- IC50 (5-HT2 receptor; [4]): 219 nM

Compound: COc1ccc(CC2NCCc3c2[nH]c2cc(C)c(C)cc32)cc1OC (centres unmarked) [Example 16, 6,7-dimethyl-1,2,3,4-tetrahydro-1-[(3,4-dimethoxyphenyl)methyl]-9H-pyrido[3,4b]indole]
- IC50 (5-HT1c receptor [1]): 63 nM
- 5-HT1c selectivity (low IC50 in 5-HT1c assay, higher IC50 in 5-HT2 assay) (5-HT1c receptor [2]): particularly 5-HT1c selective
- IC50 (5-HT2 receptor; [4]): 2110 nM

Compound: CC[C@H](c1ccc(OC)c(OC)c1)[C@@H]1NCCc2c1[nH]c1ccc(C)cc21 (relative stereo) [Example 43, (±) 6-methyl-1-[(3,4-dimethoxyphenyl)-1-propyl]-1,2,3,4-tetrahydro-9H-pyrido[3,4-b]indole (Z)-2-butenedioate]
- IC50 (5-HT1c receptor [1]): 139 nM
- Ki (Human 2A): 17.5 nM
- Ki (Human 2B): 0.87 nM
- IC50 (5-HT2 receptor; [4]): 178 nM

Compound: COc1ccc(CC2NCCc3c2[nH]c2cc(C)cc(C)c32)cc1OC (centres unmarked) [Example 15, 5,7-dimethyl-1,2,3,4-tetrahydro-1-[(3,4-dimethoxyphenyl)methyl]-9H-pyrido[3,4b]indole hydrochloride]
- IC50 (5-HT1c receptor [1]): 14 nM
- 5-HT1c selectivity (low IC50 in 5-HT1c assay, higher IC50 in 5-HT2 assay) (5-HT1c receptor [2]): particularly 5-HT1c selective
- IC50 (5-HT2 receptor; [4]): > 100 nM

Compound: COc1ccc([C@@H](C)[C@@H]2NCCc3c2[nH]c2ccc(C)cc32)cc1OC (relative stereo) [Example 40]
- IC50 (5-HT1c receptor [1]): 171 nM
- Ki (Human 2A): 44.5 nM
- Ki (Human 2B): 1.4 nM
- Ki [3]: 5.61 nM
- IC50 (5-HT2 receptor; [4]): 293 nM

Compound: COc1ccc(CC2NCCc3c2[nH]c2ccc(C)cc32)c(OC)c1OC (centres unmarked) [Example 22, 6-methyl-1-[(2,3,4-trimethoxyphenyl)-methyl]-1,2,3,4-tetrahydro-9H-pyrido[3,4-b]indole hydrochloride]
- IC50 (5-HT1c receptor [1]): 30 nM
- Ki [3]: 5.39 nM
- IC50 (5-HT2 receptor): 1420 nM

Compound: COc1ccc(CC2NCCc3c2[nH]c2c(F)cc(F)cc32)cc1OC (centres unmarked) [Example 6, 6,8-difluoro-1-[(3,4-dimethoxyphenyl)-methyl]-1,2,3,4-tetrahydro-9H-pyrido[3,4-b]indole]
- IC50 (5-HT1c receptor [1]): 43 nM
- 5-HT1c selectivity (low IC50 in 5-HT1c assay, higher IC50 in 5-HT2 assay) (5-HT1c receptor [2]): particularly 5-HT1c selective
- IC50 (5-HT2 receptor; [4]): 168 nM
